Experimental data reported in US12448366B2, “Solid forms of pralsetinib” (Rigel Pharmaceuticals, Inc., priority 2020, dated 2025).
Converted amounts (≈) assume the structure as drawn.

Assays:
Type in all cases: physicochemical
[1] = Dynamic vapor sorption (DVS); details: for DVS Mass Change: glutarate and succinate: between 2% and 90% relative humidity
Protocol: Dynamic Vapor Sorption (DVS) was done using a DVS Intrinsic 1. The sample is loaded into a sample pan and suspended from a microbalance. A typical sample mass for DVS measurement is 25 mg. Nitrogen gas bubbled through distilled water provides the desired relative humidity. A typical measurement comprises the steps: • 1—Equilibrate at 50% RH • 2—50% to 2%. (50%, 40%, 30%, 20%, 10% and 2%) • a. Hold minimum of 5 mins and maximum of 60 minutes at each humidity. The pass criteria is less than 0.002% change • 3—2% to 95% (2%, 10%, 20%, 30%, 40%, 50%, 60%, 70%, 80%, 90%, 95%) • a. Hold minimum of 5 mins and maximum of 60 minutes at each humidity. The pass criteria is less than 0.002% change • 4—95% to 2% (95%, 80%, 70%, 60%, 50%, 40%, 30%, 20%, 10%, 2%) • a. Hold minimum of 5 mins and maximum of 60 minutes at each humidity. The pass criteria is less than 0.002% change • 5—2% to 50% (2%, 10%, 20%, 30%, 40%, 50%) • a. Hold minimum of 5 mins and maximum of 60 minutes at each humidity. The pass criteria is less than 0.002% change High Pressure Liquid Chromatography (HPLC)
Dynamic Vapor Sorption (DVS) was performed using a DVS Intrinsic 1. The samples (12-31 mg) was loaded into a sample pan, suspended from a microbalance and exposed to a humidified stream of nitrogen gas. The sample was held for a minimum of 5 min at each level and only progressed to the next humidity level if there was <0.002% change in weight between measurements (interval: 60 seconds) or 240 min had elapsed. The following program was used: • 1—Equilibration at 50% RH • 2—50% to 2%. (50%, 40%, 30%, 20%, 10% and 2%) • 3—2% to 95% (2%, 10%, 20%, 30%, 40%, 50%, 60%, 70%, 80%, 90%, 95%) • 4—95% to 2% (95%, 80%, 70%, 60%, 50%, 40%, 30%, 20%, 10%, 2%) • 5—2% to 50% (2%, 10%, 20%, 30%, 40%, 50%) High Performance Liquid Chromatography (HPLC)

[2] = Salt screening: XRPD of wet cake, after drying under vacuum at 50° C., after exposure to 97% relative humidity; details: XRPD; for stability of salt solid form to humidification: 97% (>95%) relative humidity; for stability of salt solid form to drying: vacuum at 50° C.
[3] = Humidity exposure, 75% relative humidity at 40° C. for one week, XRPD; details: XRPD pattern after exposure
[4] = One week (7 days) slurry stability by XRPD and HPLC; details: XRPD and HPLC, listed as solid form 11-A
[5] = Solubility in water and simulated fluids (fasted/fed state simulated intestinal fluid, fasted state simulated gastric fluid); details: water, room temperature; read-out: water solubility at room temperature
[6] = DSC and TGA/DSC thermal analysis
Protocol: Differential scanning calorimetry was done using a Mettler Toledo DSC3+. The desired amount of sample is weighed directly in a hermetic aluminum pan with pin-hole. A typical sample mass for is 3-5 mg. A typical temperature range is 30° C. to 300° C. at a heating rate of 10° C. per minute (total time of 27 minutes). Typical parameters for DSC are listed below.
Thermogravimetric analysis and differential scanning calorimetry was done using a Mettler Toledo TGA/DSC3+. The desired amount of sample is weighed directly in a hermetic aluminum pan with pin-hole. A typical sample mass for the measurement is 5-10 mg. A typical temperature range is 30° C. to 300° C. at a heating rate of 10° C. per minute (total time of 27 minutes). Protective and purge gasses are nitrogen (20-30 mL/min and 50-100 mL/min). Typical parameters for DSC/TGA are listed below.
Differential scanning calorimetry was performed using a Mettler Toledo DSC3+. The sample (3-5 mg) was weighed directly in a 40 μL hermetic aluminum pan with pin-hole and analyzed according to the parameters below:
Thermogravimetric analysis and differential scanning calorimetry were performed on the same sample simultaneously using a Mettler Toledo TGA/DSC3+. […] The desired amount of sample (5-10 mg) was weighed directly in a hermetic aluminum pan with pin-hole and analyzed according to the parameters below: […]

Row | Structure (SMILES) | mass change by DVS ([1]; between 2% and 90% relative humidity, listed as solid form 11-A) [wt. %] | mass change by DVS ([1]; between 15% and 75% relative humidity, listed as solid form 11-A) [wt. %] | DVS Mass Change ([1]; listed as Glutarate 11-A) [wt. %] | reversibility of the DVS mass change ([1]; listed as solid form 11-A) | stability of salt solid form to humidification ([2]; listed as Pattern 11-A) | stability of salt solid form to humidification ([2]; listed as glutarate 11-A) | stability of salt solid form to humidification ([2]; listed as solid form 11-A) | stability of salt solid form to drying ([2]; listed as Pattern 11-A) | stability of salt solid form to drying ([2]; listed as glutarate 11-A) | stability of salt solid form to drying ([2]; listed as solid form 11-A) | Stability 40° C./75% RH ([3]; listed as Glutarate 11-A) | stability slurrying 7 days in EtOAc ([4]; EtOAc) | stability slurrying 7 days in EtOH ([4]; EtOH) | solubility [5] [µg/mL] | Endotherm Onset ([6]; listed as Glutarate 11-A) [°C] | DVS Mass Change [1] [wt. %] | Stability 40° C./75% RH [3] | Endotherm Onset, event marked (exo) ([6]; exotherm)
1 | CO[C@]1(C(=O)N[C@@H](C)c2ccc(-n3cc(F)cn3)nc2)CC[C@H](c2nc(C)cc(Nc3cc(C)[nH]n3)n2)CC1 [Solid Form 11-A, pralsetinib] | 0.48 | 0.27 | 0.48 | appears to be reversible | stable | stable | stable | stable | stable | stable | Stable | converted to a solid form designated as solid form 11-B | converted to a solid form designated as solid form 11-B | 240 (≈ 450 µM) | 177.8 | – | – | –
2 | CO[C@]1(C(=O)N[C@@H](C)c2ccc(-n3cc(F)cn3)nc2)CC[C@H](c2nc(C)cc(Nc3cc(C)[nH]n3)n2)CC1 [freebase (Pattern FB-A)] | – | – | – | – | – | – | – | – | – | – | – | – | – | – | – | 10.2 | Stable | 162.7 (exo) ° C.
